Assay results: US10160763B2, “WDR5 inhibitors and modulators” (Vanderbilt University, priority 2016, dated 2018)

Biological target: WDR5 (Δ23, residues 24-334) (Homo sapiens, UniProt P61964)
Assay: biochemical
Settings: Kd (M), FPA-based binding affinity at the WDR5 WIN site; IC50 converted to Kd by modified Cheng-Prusoff equation; average of two experiments

## COc1cccc(C(=O)NCc2cc(-c3cn4c(n3)CCC4)ccc2N2CCOCC2)c1 [B139]
  Kd: 1.84e-07 M

## CC(=O)N1CCCC(C(=O)NCc2cc(-c3cn4c(n3)CCC4)ccc2N2CCOCC2)C1 (stereo not drawn) [B156]
  Kd: 6.8e-08 M

## COc1cccc(CCC(=O)NCc2cccc(-c3cn4c(n3)CCC4)c2)c1 [B157]
  Kd: 9.1e-08 M

## COc1ccc(C(=O)N(Cc2cccc(-c3cn4c(n3)CCC4)c2)C(C2CC2)C2CC2)cc1OC [B55]
  Kd: 5.25e-06 M

## COc1cc(C(=O)NCc2cc(-c3cn4c(n3)CCC4)ccc2N2CCOCC2)ccc1C [B194]
  Kd: 2.04e-06 M

## COc1cccc(C(=O)N(Cc2ccccc2)Cc2cccc(-c3cn4c(n3)CCC4)c2)c1 [B35]
  Kd: 2.43e-07 M

## O=C(Cc1cc(Cl)cc(Cl)c1)NCc1cccc(-c2cn3c(n2)CCC3)c1 [B18]
  Kd: 2.08e-07 M

## O=C(NCc1cccc(-c2cn3c(n2)CCC3)c1)c1ccc2c(c1)OCO2 [B56]
  Kd: 1.18e-06 M

## CC(C)N(Cc1cc(-c2cn3c(n2)CCC3)ccc1OC1CCC1)C(=O)Cc1ccc(Cl)c(Cl)c1 [B148]
  Kd: 1.4e-08 M

## O=C(NCc1cccc(-c2cn3c(n2)CCC3)c1)c1ccc(Cl)cc1Cl [B4]
  Kd: 3.9e-06 M

## CC(=O)NCc1cccc(C(=O)NCc2cccc(-c3cn4c(n3)CCC4)c2)c1 [B189]
  Kd: 7.41e-07 M

## CN(C)C(=O)CCC(=O)NCc1cccc(-c2cn3c(n2)CCC3)c1 [B124]
  Kd: 2.25e-07 M

## COc1cccc(C(=O)N(Cc2cccc(-c3cn4c(n3)CCC4)c2)CC2CCCC2)c1 [B41]
  Kd: 2.95e-07 M

## O=C(Cc1ccc(F)c(Cl)c1)NCc1cc(-c2cn3c(n2)CCC3)cnc1OC1CCC1 [B224]
  Kd: 6.1e-08 M

## O=C(NCc1cccc(-c2cn3c(n2)CCC3)c1)c1cccc(Cl)c1Cl [B167]
  Kd: 3.8e-07 M

## CC(C)N1CCCC(C(=O)NCc2cc(-c3cn4c(n3)CCC4)ccc2OC2CCC2)C1 (stereo not drawn) [B199]
  Kd: 6.3e-06 M

## COc1cc(C(=O)N(Cc2cc(-c3cn4c(n3)CCC4)ccc2N2CCOCC2)CC2CCCCC2)ccc1C [B198]
  Kd: 1.59e-07 M

## CCOc1cccc(C(=O)NCc2cccc(-c3cn4c(n3)CCC4)c2)c1 [B78]
  Kd: 1.48e-07 M

## COc1ccc(C(=O)N(Cc2cccc(-c3cn4c(n3)CCC4)c2)C(C)c2ccccc2)cc1OC (stereo not drawn) [B70]
  Kd: 5.98e-06 M

## CC(C(=O)N(Cc1cccc(-c2cn3c(n2)CCC3)c1)C(C)C)c1cc(Cl)cc(Cl)c1 (stereo not drawn) [B75]
  Kd: 4.1e-07 M

## O=C(NCc1cccc(-c2cn3c(n2)CCC3)c1)C1CCNCC1 [B27]
  Kd: 4.19e-06 M

## O=C(Cc1ccncc1)NCc1cccc(-c2cn3c(n2)CCC3)c1 [B123]
  Kd: 2.2e-08 M

## CN1CCN(c2ccc(-c3cn4c(n3)CCC4)cc2CNC(=O)Cc2ccc(Cl)c(Cl)c2)CC1 [B142]
  Kd: 1.2e-07 M

## O=C(Cc1cccc(Cl)c1Cl)NCc1cccc(-c2cn3c(n2)CCC3)c1 [B149]
  Kd: 8.75e-07 M

## CC(C)N(Cc1cccc(-c2cn3c(n2)CCC3)c1)C(=O)Cc1cc(Cl)cc(Cl)c1 [B73]
  Kd: 1.9e-06 M

## Cn1cc(CC(=O)NCc2cccc(-c3cn4c(n3)CCC4)c2)c2ccccc21 [B121]
  Kd: 2.78e-05 M

## COc1cccc(CN(Cc2cccc(-c3cn4c(n3)CCC4)c2)C(=O)c2ccc(OC)c(OC)c2)c1 [B64]
  Kd: 5.38e-07 M

## O=C(CC12C[C@H]3C[C@@H](C1)C[C@@H](C2)C3)NCc1cccc(-c2cn3c(n2)CCC3)c1 [B107]
  Kd: 5.6e-08 M

## CC(=O)N1CCCC(C(=O)N(Cc2cccc(-c3cn4c(n3)CCC4)c2)CC2CC2)C1 (stereo not drawn) [B58]
  Kd: 7.9e-07 M

## O=C(Cc1ccc(Cl)c(Cl)c1)N(Cc1cc(-c2cn3c(n2)CCC3)ccc1N1CCCC1)CC1CC1 [B146]
  Kd: 4.16e-07 M
